Legend:
cells = experiment: Cytotoxicity in cells; type: cell-based; details: up to 20 μM
Source text: (§1) The secreted Wnts subsequently function on Wnt receiving cells that leads to phosphorylation of the Wnt […] LRP6. […] PORCN was reported to affect pan-Wnt post-translational palmitoylation^17-18.

HN30 tumors [1] = experiment: Pharmacodynamic markers in HN30 mouse xenograft tumors; type: in vivo
Procedure: AXIN2 mRNA and pLRP6 levels (determined as in Example 3) were utilized as pharmacodynamic markers to link the observed anti-tumor activity in the HN30 mouse xenograft model. […] A time delay was observed between the peak drug concentration (at 1 hour) and the maximum AXIN2 mRNA inhibition (at 10 hours). […] This pharmacokinetic (PK), PD, and efficacy relationship explains that the sustained pathway inhibition is not required for inducing tumor regression in this HN30 xenograft model, which may provide a key differentiation factor between tumors and normal tissues to achieve a therapeutic window.
For this a two-Step TaqMan RT-PCR analysis was performed on a PTC-200 peltier thermal cycler (MJ Research) and an ABI PRISM 7900HT Sequence Detection system (Applied Biosystems). Firstly, cDNA was synthesized using a High-Capacity cDNA Archive kit (Applied Biosystems) according to the manufacturer's instructions. Briefly, the RT reaction was prepared by mixing non-enzymatic, enzymatic components of the High-Capacity cDNA Archive kit and isolated RNA samples, followed with tandem incubation at 25° C. for 10 min and 37° C. for 120 min using a thermal cycler. Secondly, TaqMan analyses were performed using TaqMan Universal Master mix (Applied Biosystems) and AXIN2 and GAPDH probes (Applied Biosystems) according to the manufacturer's instructions. Briefly, the PCR reaction was prepared by mixing Universal Master mix, TaqMan probes and synthesized cDNA samples. The PCR cycle is as following: 95° C. for 10 min and 40 cycles of tandem incubation at 95° C. for 15 sec and 60° C. for 1 min. mRNA expression levels for the target genes were normalized to GAPDH mRNA levels and data were analyzed using SDS 2.0 software (Applied Biosystems) to calculate relative RNA quantities. Curve fitting was performed using Prism.
For GeneCard analysis, 96-well TaqMan array gene card was used according to the manufacturer's instruction. The gene card assays were run on ABI 7900HT Real-Time PCR System (Applied Biosystems) and analyzed with the ΔΔCt method.

[2] = Plasma concentrations in tumor bearing nude mice; type: in vivo, mouse; details: single dose 3 mg/kg
Procedure: (§2) Nude mice bearing HN30 tumors were randomized according to tumor volume. […] Body weight was monitored daily and tumor sizes were assessed three times a week once tumors were palpable. Tumor sizes were determined by using caliper measurements. Tumor volumes were calculated with a formula (Length×Width×Height)/2. […] Blood sample (50 μL) was collected by serial retroorbital sampling at 1, 3, 7, 16 and 24 hours post-dose. The blood samples were centrifuged and plasma separated and frozen until analysis by LC/MS/MS.

HN30 tumors [3] = experiment: Mouse subcutaneous xenograft model of HNSCC HN30, anti-tumor activity; type: in vivo
Procedure: as §2
Changes in tumor weight for each treated (T) and control (C) groups were measured and used to calculate growth delay as expressed by the T/C ratio. […] A similar result was obtained when dosed twice a day in this model with −44% T/C at a dose of 0.5 mg/kg twice a day.

HN30 cells [4] = experiment: HN30 colony formation assay; type: cell-based, human; details: in vitro, crystal violet one week later
Procedure: In order to correlate the pathway inhibition with cellular function, the human HNSCC cell line HN30 was used for further in vitro and in vivo characterization. For colony formation assay, 2×10^3 cells per well were plated into 6-well cell culture plates with or without compound treatment. Cells were stained with crystal violet one week later.

[5] = test system: Wnt1, 2, 3, 3A, 6, 7A, and 9A; experiment: Wnt dependent STF reporter assays with a set of canonical Wnts; type: cell-based
Source text: as §1

HN30 cells [6] = experiment: Wnt-dependent AXIN2 message production in HN30 (TaqMan); type: cell-based; details: Homo sapiens; HN30, 48 hours
Procedure: (§3) To identify human cancer cell lines that respond to porcupine inhibition, we profiled over 300 cell lines using the mRNA expression level of AXIN2 as readout. All cell lines were cultured in a humidified incubator at 37° C. with 5% CO2. HN30 cells (Wayne State University) and UMSCC cells (University of Michigan) are derived from human head neck squamous cell carcinoma (HNSCC) patient tumor samples. Total RNA or DNA was isolated using the Qiagen RNeasy and DNeasy blood and tissue kit, according to the manufacturer's instruction, respectively. Briefly, cells were disrupted by adding Buffer RLT and homogenized using QlAshredder spin columns. After one volume of 70% ethanol was added to the homogenized lysate and thoroughly mixed, the samples were transferred to RNeasy spin column. The flow-through was discarded after centrifuge. […]
(§4) For this a two-Step TaqMan RT-PCR analysis was performed on a PTC-200 peltier thermal cycler (MJ Research) and an ABI PRISM 7900HT Sequence Detection system (Applied Biosystems). […] The PCR cycle is as following: 95° C. for 10 min and 40 cycles of tandem incubation at 95° C. for 15 sec and 60° C. for 1 min. mRNA expression levels for the target genes were normalized to GAPDH mRNA levels and data were analyzed using SDS 2.0 software (Applied Biosystems) to calculate relative RNA quantities. […]

Wnt signaling = experiment: Wnt co-culture reporter gene assay (TM3 Wnt-Luc cells with L-cell Wnt3A cells); type: cell-based, mouse
Procedure: Reporter gene assay: Mouse Leydig cell TM3 cells (obtained from American Type Culture Collection, ATCC, Manassas, Va.) are cultured in 1:1 mixture of Ham's F12 medium and Dulbecco's modified Eagle's medium (Gibco/Invitrogen, Carlsbad, Calif.) supplemented with 2.5% FBS (Gibco/Invitrogen, Carlsbad, Calif.) and 5% horse serum (Gibco/Invitrogen, Carlsbad, Calif.), 50 unit/mL penicillin and 50 μg/mL of streptomycin (Gibco/Invitrogen, Carlsbad, Calif.) at 37° C. with 5% CO2 in air atmosphere. TM3 cells in a 10 cm dish are co-transfected with 8 μg of STF-reporter plasmid containing a luciferase gene driven by Wnt-responsive elements and 2 μg of pcDNA3.1-Neo (Gibco/Invitrogen, Carlsbad, Calif.) with 30 μL of FuGENE6 (Roche Diagnostics, Indianapolis, Ind.) following the manufacturer's protocol. Stable cell lines (TM3 Wnt-Luc) were selected with 400 μg/mL of G418 (Gibco/Invitrogen, Carlsbad, Calif.). […]

SNU1076 xenograft = SNU1076 xenograft model in mice; type: in vivo, mouse; details: 5 mg/kg
Source text: DTX3L (Deltex 3-like, also called BBAP, B-lymphoma- and BAL-associated protein) heterozygous nonsense mutation was identified in the HNSCC cell line SNU1076. DTX3L is an E3 ubiquitin ligase. Its cellular function in the mammalian Notch pathway is not clear, but its Drosophila homologue Deltex is a positive regulator of Notch signaling in Drosophila. […] Loss of DTX3L may provide an alternative mechanism to inactivate the Notch signaling pathway with subsequent activation of Wnt signaling.

HNSCC cell lines = experiment: Cancer cell line profiling with AXIN2 mRNA expression as readout (TaqMan); type: cell-based, human
Procedure: as §3, §4

Wnt3A secretion = experiment: HA-Wnt3A secretion in transfected 293A cells; type: cell-based; details: 293A cells transfected with HA-Wnt3A, various doses; lysate HA-Wnt3A spared
Source text: as §1

LRP6 phosphorylation = experiment: Wnt dependent phosphorylation of LRP6 in autocrine L-Wnt3A cells; type: cell-based, mouse
Source text: as §1

**Q.** For Cc1cc(-c2ncc(CC(=O)Nc3ccc(-c4cnccn4)cn3)cc2C)ccn1 [COMPOUND A, 2-[5-methyl-6-(2-methylpyridin-4-yl)pyridin-3-yl]-N-[5-(pyrazin-2-yl)pyridin-2-yl]acetamide], which cytotoxicity in cells (cells) is on record?
**A.** The cytotoxicity in cells was “no major cytotoxicity”.

**Q.** And the “time of maximum effect on pLRP6” value (HN30 tumors [1]; HN30 tumors)?
**A.** The value was 7-10 hours post dose.

**Q.** What about the “downregulation for LEF1” value (HN30 tumors [1]; HN30 xenograft) of the same compound?
**A.** Its value is 84%.

**Q.** And the “downregulation for NKD1” value (HN30 tumors [1]; HN30 xenograft)?
**A.** The value was 67%.

**Q.** What about the “time of maximum AXIN2 mRNA inhibition” value (HN30 tumors [1]; single dose 3 mg/kg) of the same compound?
**A.** Its value is 10 h.

**Q.** What about the “reduction of AXIN2 mRNA expression in tumors” value (HN30 tumors [1]; single dose 3 mg/kg, between 5 and 10 hours post dose) of the same compound?
**A.** The value was 60-95%.

**Q.** What about the “pLRP6 levels in the HN30 tumors” value (HN30 tumors [1]; time dependent, largely back to normal by 24 hours) of the same compound?
**A.** Its value is “substantially reduced”.

**Q.** And the “time of peak drug concentration” value [2]?
**A.** The value was 1 h.

**Q.** What about the T/C (HN30 tumors [3]; 0.1 mg/kg once a day, oral gavage, 14 days) of the same compound?
**A.** The T/C was 69%.

**Q.** What about the T/C (HN30 tumors [3]; 0.3 mg/kg once a day, oral gavage, 14 days) of the same compound?
**A.** The T/C was 26%.

**Q.** What about the T/C (HN30 tumors [3]; 0.5 mg/kg twice a day) of the same compound?
**A.** The T/C was −44%.

**Q.** What about the T/C (HN30 tumors [3]; 1.0 mg/kg once a day, oral gavage, 14 days) of the same compound?
**A.** Its T/C is −31%.

**Q.** What about the T/C (HN30 tumors [3]; 3.0 mg/kg once a day, oral gavage, 14 days) of the same compound?
**A.** Its T/C is −50%.

**Q.** What about the “animal body weight loss” value (HN30 tumors [3]; 0.1-3.0 mg/kg once a day, 14 days) of the same compound?
**A.** The value was “no significant animal body weight loss”.

**Q.** What about the HN30 colony formation (HN30 cells [4]) of the same compound?
**A.** The HN30 colony formation was “strongly attenuated”.

**Q.** What about the “inhibitory activities against canonical Wnts in STF reporter assays” value [5] of the same compound?
**A.** Its value is “comparable inhibitory activities against all tested Wnts”.

**Q.** What about the IC50 (HN30 cells [6]) of the same compound?
**A.** The IC50 was 0.3 nM.

**Q.** What about the IC50 (Wnt signaling; Mus musculus, luciferase reporter, 24 hours, read-out: IC50 of Wnt signaling inhibition in Wnt co-culture assay) of the same compound?
**A.** The IC50 was 0.4 nM.

**Q.** And the “inhibitory effect after addition of exogenous Wnt3A conditioned medium” value (Wnt signaling; Wnt co-culture assay)?
**A.** Its value is “rescued”.

**Q.** And the T/C (SNU1076 xenograft; 14 days of treatment)?
**A.** Its T/C is 25%.

**Q.** And the “reduction of AXIN2” value (SNU1076 xenograft; SNU1076 xenograft)?
**A.** Its value is 70%.

**Q.** What about the “cell lines harbouring HRAS mutations that responded” value (HNSCC cell lines; head and neck cancer cell lines) of the same compound?
**A.** The value was 4 of 5.

**Q.** What about the “HNSCC cell lines showing pathway inhibition” value (HNSCC cell lines; responsive = greater than 50% AXIN2 mRNA reduction after 10-100 nM for 48 hours) of the same compound?
**A.** The value was 31 out of 96.

**Q.** What about the “abundance of HA-Wnt3A in the supernatant” value (Wnt3A secretion) of the same compound?
**A.** The value was “potently attenuated”.

**Q.** And the “Wnt dependent phosphorylation of LRP6” value (LRP6 phosphorylation)?
**A.** The value was “strongly blocked”.
